Measured values taken from patent US9650339B2, “Inhibitors of histone demethylases” (Gilead Sciences, Inc., priority 2013, dated 2017).
Each block holds one compound with its values, some of them ahead of it.

Experiments:
MM1S = assay: Cell proliferation assay MM1S; format: cell-based; details: Homo sapiens, MM1.S, Myeloma, method of Example 5
Method: (§1) MCF7 cells were seeded in multi well plates at a density optimized to give approximately 90% confluent cells at the time of harvest. Cells were incubated for 24 hours before addition of compound. Compounds were diluted in complete medium and added to the plates in duplicates. The final concentration of DMSO was maximum 0.5%. Complete medium used was DMEM with GlutaMAX containing 10% FBS and pen/strep.
(§2) 120 hours after addition of compounds, the plates were harvested and analyzed by ATPlite 1 Step (Perkin Elmer, cat no 6016739) according to the manufactures recommendation.
(§3) The assays were performed by the method of Example 5 by seeding the relevant cell line at a density optimized to give approximately 90% confluent cells at the time of harvest.

Jurkat Clone E6-1 = assay: Cell proliferation assay Jurkat Clone E6-1; format: cell-based; details: Homo sapiens; Jurkat Clone E6-1, Acute T cell lymphoma; method of Example 5
Method: as §1, §2, §3

EJM = assay: Cell proliferation assay EJM; format: cell-based; details: Homo sapiens, Myeloma, method of Example 5
Method: as §1, §2, §3

SK-MEL-28 = assay: Cell proliferation assay SK-MEL-28; format: cell-based; details: Homo sapiens; SK-MEL-28, Melanoma; method of Example 5
Method: as §1, §2, §3

KMS 12 BM = assay: Cell proliferation assay KMS 12 BM; format: cell-based; details: Homo sapiens, Myeloma, method of Example 5
Method: as §1, §2, §3

K562 = assay: Cell proliferation assay K562; format: cell-based; details: Homo sapiens; K562, Chronic myelogenous leukemia; method of Example 5
Method: as §1, §2, §3

SU DHL6 = assay: Cell proliferation assay SU DHL6; format: cell-based; details: Homo sapiens, SU-DHL-6; SU DHL6, B cell lymphoma; method of Example 5
Method: as §1, §2, §3

L363 = assay: Cell proliferation assay L363; format: cell-based; details: Homo sapiens, L-363; L363, Plasma cell leukemia; method of Example 5
Method: as §1, §2, §3

A375 = assay: Cell proliferation assay A375; format: cell-based; details: Homo sapiens, A-375; A375, Melanoma; method of Example 5
Method: as §1, §2, §3

NCIH929 = assay: Cell proliferation assay NCIH929; format: cell-based; details: Homo sapiens, NCI-H929; NCIH929, Myeloma; method of Example 5
Method: as §1, §2, §3

HCC1954 = assay: Cell proliferation assay HCC1954; format: cell-based; details: Homo sapiens; HCC1954, Breast dutal carcinoma; method of Example 5
Method: as §1, §2, §3

OVCAR-3 = assay: Cell proliferation assay OVCAR-3; format: cell-based; details: Homo sapiens; OVCAR-3, Ovary; method of Example 5
Method: as §1, §2, §3

AMO1 = assay: Cell proliferation assay AMO1; format: cell-based; details: Homo sapiens; AMO1, Plasmacytoma; method of Example 5
Method: as §1, §2, §3

NALM6 = assay: Cell proliferation assay NALM6; format: cell-based; details: Homo sapiens, NALM-6; NALM6, Lymphoblastic leukemia; method of Example 5
Method: as §1, §2, §3

LP1 = assay: Cell proliferation assay LP1; format: cell-based; details: Homo sapiens, LP-1; LP1, Myeloma; method of Example 5
Method: as §1, §2, §3

U266 = assay: Cell proliferation assay U266; format: cell-based; details: Homo sapiens, U-266; U266, Myeloma; method of Example 5
Method: as §1, §2, §3

UH01 = assay: Cell proliferation assay UH01; format: cell-based; details: Homo sapiens; UH01, Hodgkin's lymphoma; method of Example 5
Method: as §1, §2, §3

SK MM2 = assay: Cell proliferation assay SK MM2; format: cell-based; details: Homo sapiens, SK-MM-2; SK MM2, Plasma cell leukemia; method of Example 5
Method: as §1, §2, §3

[1] = system: OPM-2 subcutaneous mouse xenograft model of multiple myeloma; assay: Inhibition of tumor growth in mouse xenograft model; format: in vivo, NOD/SCID mice (Mus Musculus)
Description: Briefly, NOD/SCID mice γ-irradiated with ^60Co (200 rad) (12 animals/group) were inoculated subcutaneously with 8×10^6 OPM-2 cells assisted with Matrigel. Dosing according to the table below started when tumors reached an average size of ˜100 mm^3 (day 15). Dosing continued until the average size of tumors in the vehicle group reached ˜2000 mm^3 (day 31).
Animals were 7 weeks old female NOD/SCID mice (Mus Musculus), supplied by Beijing HFK Bio-Technology Co. Ltd. (Beijing, china). Body weight was approx. 16-23 g. Before commencement of treatment, all animals were weighed and tumor volumes were measured, and mice were assigned into groups using randomized block design based upon their tumor volumes.
OPM-2 tumor cells were maintained in vitro in RPMI1640 medium supplemented with 20% fetal bovine serum at 37° C. in an atmosphere of 5% CO2 in air. The tumor cells were routinely subcultured twice weekly. The cells growing in an exponential growth phase were harvested and counted for tumor inoculation.
Tumor sizes were measured three times weekly in two dimensions using a caliper, and the volume was expressed in mm^3 using the formula: V=0.5 a×b^2 where a and b were the long and short diameters of the tumor, respectively.

JJN3 = assay: Cell proliferation assay JJN3; format: cell-based; details: Homo sapiens, JJN-3; JJN3, Plasma cell leukemia; method of Example 5
Method: as §1, §2, §3

MM1R = assay: Cell proliferation assay MM1R; format: cell-based; details: Homo sapiens, MM.1R, Myeloma, method of Example 5
Method: as §1, §2, §3

MOLP8 = assay: Cell proliferation assay MOLP8; format: cell-based; details: Homo sapiens, MOLP-8; MOLP8, Myeloma; method of Example 5
Method: as §1, §2, §3

Compound: CCN(CCN(C)C)C(=O)CNCc1cc(CNC(=O)C(F)(F)F)ccn1 [Compound 25, N-[(2-{[({[2-(dimethylamino)ethyl]-(ethyl)carbamoyl}-methyl)amino]methyl}-pyrtdin-4-yl)methyl]-2,2,2-trifluoroacetamide]
EC50 (MM1S): < 250 nM
EC50 (Jurkat Clone E6-1): > 2500 nM
EC50 (EJM): > 2500 nM
EC50 (SK-MEL-28): > 2500 nM
EC50 (KMS 12 BM): < 250 nM
EC50 (K562): 250 to 2500 nM
EC50 (SU DHL6): < 250 nM
EC50 (L363): > 2500 nM
EC50 (A375): 250 to 2500 nM
EC50 (NCIH929): 250 to 2500 nM
EC50 (HCC1954): > 2500 nM
EC50 (OVCAR-3): > 2500 nM
EC50 (AMO1): < 250 nM

Compound: C(=N/C1CC1)/c1ccnc(CNCCCN2CCCC2)c1 [Compound 42, N-{[2-({[3-(pyrrolidin-1-yl)propyl]amino}-methyl)pyridin-4-yl]methylidene}-cyclopropanamine]
EC50 (NALM6): < 250 nM

Compound: CCN(CC)CCCCNCc1cc(C=O)ccn1 [Compound 107, 2-({[4-(diethylamino)-butyl]amino}-methyl)pyridine-4-carbaldehyde]
EC50 (NALM6): < 250 nM

Second part, led by results:

EC50 (U266): > 2500 nM
Compound: CCN(CC)CCCCNCc1cc(/C=N/CCO)ccn1 [Compound 61, 2-[{[2-({[4-(diethylamino)-butyl]amino}-methyl)pyridin-4-yl]methylidene}-amino]ethan-1-ol]
EC50 (EJM): > 2500 nM
EC50 (LP1): > 2500 nM
EC50 (UH01): > 2500 nM
EC50 (L363): > 2500 nM
EC50 (SK MM2): 250 to 2500 nM
Tumor Volume ([1]; BID × 14 i.p. 1 mg/kg, day 15 after inoculation (start of dosing)): 101 ± 12 mm^3
Tumor Volume ([1]; BID × 14 i.p. 1 mg/kg, day 17 after inoculation): 249 ± 32 mm^3
Tumor Volume ([1]; BID × 14 i.p. 1 mg/kg, day 19 after inoculation): 320 ± 45 mm^3
Tumor Volume ([1]; BID × 14 i.p. 1 mg/kg, day 21 after inoculation): 577 ± 85 mm^3
Tumor Volume ([1]; BID × 14 i.p. 1 mg/kg, day 24 after inoculation): 951 ± 124 mm^3
Tumor Volume ([1]; BID × 14 i.p. 1 mg/kg, day 26 after inoculation): 1259 ± 169 mm^3
Tumor Volume ([1]; BID × 14 i.p. 1 mg/kg, day 28 after inoculation): 1800 ± 202 mm^3
Tumor Volume ([1]; BID × 14 i.p. 1 mg/kg, day 31 after inoculation): 2864 ± 334 mm^3
Tumor Volume ([1]; BID × 14 i.p. 10 mg/kg, day 15 after inoculation (start of dosing)): 101 ± 11 mm^3
Tumor Volume ([1]; BID × 14 i.p. 10 mg/kg, day 17 after inoculation): 198 ± 28 mm^3
Tumor Volume ([1]; BID × 14 i.p. 10 mg/kg, day 19 after inoculation): 276 ± 44 mm^3
Tumor Volume ([1]; BID × 14 i.p. 10 mg/kg, day 21 after inoculation): 519 ± 67 mm^3
Tumor Volume ([1]; BID × 14 i.p. 10 mg/kg, day 24 after inoculation): 694 ± 92 mm^3
Tumor Volume ([1]; BID × 14 i.p. 10 mg/kg, day 26 after inoculation): 928 ± 136 mm^3
Tumor Volume ([1]; BID × 14 i.p. 10 mg/kg, day 28 after inoculation): 1289 ± 178 mm^3
Tumor Volume ([1]; BID × 14 i.p. 10 mg/kg, day 31 after inoculation): 1996 ± 302 mm^3
Tumor Volume ([1]; BID × 14 i.p. 20 mg/kg, day 15 after inoculation (start of dosing)): 101 ± 12 mm^3
Tumor Volume ([1]; BID × 14 i.p. 20 mg/kg, day 17 after inoculation): 188 ± 25 mm^3
Tumor Volume ([1]; BID × 14 i.p. 20 mg/kg, day 19 after inoculation): 292 ± 50 mm^3
Tumor Volume ([1]; BID × 14 i.p. 20 mg/kg, day 21 after inoculation): 440 ± 77 mm^3
Tumor Volume ([1]; BID × 14 i.p. 20 mg/kg, day 24 after inoculation): 766 ± 143 mm^3
Tumor Volume ([1]; BID × 14 i.p. 20 mg/kg, day 26 after inoculation): 1029 ± 196 mm^3
Tumor Volume ([1]; BID × 14 i.p. 20 mg/kg, day 28 after inoculation): 1298 ± 236 mm^3
Tumor Volume ([1]; BID × 14 i.p. 20 mg/kg, day 31 after inoculation): 1573 ± 261 mm^3
EC50 (NCIH929): > 2500 nM
EC50 (JJN3): > 2500 nM

EC50 (MM1R): < 250 nM
Compound: CCN(CCN(C)C)C(=O)CNCc1cc(C2OCC(Cc3ccccc3)CN2C(=O)C(F)(F)F)ccn1 (stereo not shown) [Compound 90, 2-[({4-[5-benzyl-3-(trifluoroacetyl)-1,3-oxazinan-2-yl]pyridin-2-yl}methyl)amino]-N-[2-(dimethylamino)-ethyl]-N-ethylacetamide]
EC50 (MOLP8): < 250 nM
